Test results: ChEMBL document CHEMBL1255478, “Characterization of CSP-1, a novel extended-spectrum beta-lactamase produced by a clinical isolate of Capnocytophaga sputigena” (2010)
In brackets after ≈: the same amount, converted by molar mass.

How the values were obtained:
Assay type in all cases: functional
Capnocytophaga sputigena [1] = assay: Antimicrobial activity against Capnocytophaga sputigena CIP 104301T after 2 days by agar dilution method; details: 48 h
Capnocytophaga sputigena [2] = assay: Antimicrobial activity against Capnocytophaga sputigena CRBIP 17.39 after 2 days by agar dilution method; details: CRBIP 17.39, 48 h
Capnocytophaga sputigena [3] = assay: Antimicrobial activity against Capnocytophaga sputigena isolate NOR after 2 days by agar dilution method; details: 48 h
Escherichia coli [4] = assay: Antimicrobial activity against Escherichia coli TOP10(pNOR-1) expressing CSP-1 gene after 2 days by agar dilution method; details: 48 h
Escherichia coli [5] = assay: Antimicrobial activity against Escherichia coli TOP10 after 2 days by agar dilution method; details: TOP10, 48 h

Row | Compound | MIC (Capnocytophaga sputigena [1]) [µg/mL] | MIC (Capnocytophaga sputigena [2]) [µg/mL] | MIC (Capnocytophaga sputigena [3]) [µg/mL] | MIC (Escherichia coli [4]) [µg/mL] | MIC (Escherichia coli [5]) [µg/mL]
1 | CO/N=C(\C(=O)N[C@@H]1C(=O)N2C(C(=O)[O-])=C(C[N+]3(C)CCCC3)CS[C@H]12)c1csc(N)n1 [CEFEPIME] | < 0.06 | < 0.06 | 0.125 (≈ 0.26 µM) | 4 (≈ 8.32 µM) | –
2 | CO[C@@]1(NC(=O)Cc2cccs2)C(=O)N2C(C(=O)O)=C(COC(N)=O)CS[C@@H]21 [CEFOXITIN] | 0.5 (≈ 1.17 µM) | 0.5 (≈ 1.17 µM) | 0.5 (≈ 1.17 µM) | 2 (≈ 4.68 µM) | 2 (≈ 4.68 µM)
3 | C[C@H]1[C@H](NC(=O)/C(=N\OC(C)(C)C(=O)O)c2csc(N)n2)C(=O)N1S(=O)(=O)O [AZTREONAM] | 0.125 (≈ 0.287 µM) | 0.125 (≈ 0.287 µM) | 0.125 (≈ 0.287 µM) | 16 (≈ 36.7 µM) | –
4 | CCN1CCN(C(=O)N[C@@H](C(=O)N[C@@H]2C(=O)N3[C@@H]2SC(C)(C)[C@@H]3C(=O)O)c2ccccc2)C(=O)C1=O [PIPERACILLIN] | 0.25 (≈ 0.483 µM) | 0.25 (≈ 0.483 µM) | 0.5 (≈ 0.966 µM) | 16 (≈ 30.9 µM) | 1 (≈ 1.93 µM)
5 | C[C@@H](O)[C@H]1C(=O)N2C(C(=O)O)=C(SCCNC=N)C[C@H]12 [IMIPENEM ANHYDROUS] | 0.06 (≈ 0.2 µM) | 0.06 (≈ 0.2 µM) | 0.06 (≈ 0.2 µM) | 0.06 (≈ 0.2 µM) | –
6 | CO/N=C(\C(=O)N[C@@H]1C(=O)N2C(C(=O)O)=C(COC(N)=O)CS[C@H]12)c1ccco1 [CEFUROXIME] | 0.5 (≈ 1.18 µM) | 0.5 (≈ 1.18 µM) | 64 (≈ 151 µM) | 256 (≈ 603 µM) | 0.5 (≈ 1.18 µM)
7 | CC1(C)S[C@@H]2[C@H](NC(=O)[C@H](N)c3ccc(O)cc3)C(=O)N2[C@H]1C(=O)O [AMOXICILLIN] | 0.25 (≈ 0.684 µM) | 0.25 (≈ 0.684 µM) | 256 (≈ 701 µM) | > 512 | 2 (≈ 5.47 µM)
8 | CC(=O)OCC1=C(C(=O)O)N2C(=O)[C@@H](NC(=O)Cc3cccs3)[C@H]2SC1 [CEPHALOTHIN] | 0.25 (≈ 0.631 µM) | 0.125 (≈ 0.315 µM) | 64 (≈ 161 µM) | > 512 | 4 (≈ 10.1 µM)
9 | CC(C)(O/N=C(\C(=O)N[C@@H]1C(=O)N2C(C(=O)[O-])=C(C[n+]3ccccc3)CS[C@H]12)c1csc(N)n1)C(=O)O [CEFTAZIDIME] | < 0.06 | < 0.06 | 4 (≈ 7.32 µM) | 0.5 (≈ 0.915 µM) | < 0.06
10 | CC1(C)S[C@@H]2[C@H](NC(=O)[C@H](C(=O)O)c3ccsc3)C(=O)N2[C@H]1C(=O)O [TICARCILLIN] | 0.25 (≈ 0.65 µM) | 0.25 (≈ 0.65 µM) | 4 (≈ 10.4 µM) | > 512 | 1 (≈ 2.6 µM)
11 | CO/N=C(\C(=O)N[C@@H]1C(=O)N2C(C(=O)O)=C(COC(C)=O)CS[C@H]12)c1csc(N)n1 [CEFOTAXIME] | < 0.06 | < 0.06 | 0.25 (≈ 0.549 µM) | 8 (≈ 17.6 µM) | < 0.06
